In brackets after ≈: the same amount, converted by molar mass.

One data set deals with HeLa. Put plainly: Antitumor activity against human HeLa cells xenografted in mouse assessed as reduction in tumor weight at 20 mg/kg/day, ip for 3 weeks. More on the design: scale not given: the % may be the effect or the level left. It counts as functional.
Data set [1] can be described thus: Binding affinity to human nRNP.
Another data set has as its system MDA-MB-231. The data set is described as follows: Cytotoxicity against human MDA-MB-231 cells. It counts as functional, cell-based.
The next data set deals with KG-1. The data set is described as follows: Cytotoxicity against human KG-1 cells. It counts as functional, cell-based.
Data set [2] has as its system PC-3. Put plainly: Antiproliferative activity against human PC-3 cells. It counts as functional, cell-based.
In another data set the test system is Raji. Put plainly: Cytotoxicity against human Raji cells. It counts as functional, cell-based.
For the next data set, the system named is U-937. Put plainly: Cytotoxicity against human U-937 cells. It counts as functional, cell-based.
The subject of a further data set is MCF7. Put plainly: Antiproliferative activity against human MCF7 cells. It counts as functional, cell-based. The note with it: Homo sapiens, MCF7.
The target in data set [3] is Prostaglandin G/H synthase 2 (Homo sapiens, UniProt P35354).
Sequence of Prostaglandin G/H synthase 2 (P35354 whole entry): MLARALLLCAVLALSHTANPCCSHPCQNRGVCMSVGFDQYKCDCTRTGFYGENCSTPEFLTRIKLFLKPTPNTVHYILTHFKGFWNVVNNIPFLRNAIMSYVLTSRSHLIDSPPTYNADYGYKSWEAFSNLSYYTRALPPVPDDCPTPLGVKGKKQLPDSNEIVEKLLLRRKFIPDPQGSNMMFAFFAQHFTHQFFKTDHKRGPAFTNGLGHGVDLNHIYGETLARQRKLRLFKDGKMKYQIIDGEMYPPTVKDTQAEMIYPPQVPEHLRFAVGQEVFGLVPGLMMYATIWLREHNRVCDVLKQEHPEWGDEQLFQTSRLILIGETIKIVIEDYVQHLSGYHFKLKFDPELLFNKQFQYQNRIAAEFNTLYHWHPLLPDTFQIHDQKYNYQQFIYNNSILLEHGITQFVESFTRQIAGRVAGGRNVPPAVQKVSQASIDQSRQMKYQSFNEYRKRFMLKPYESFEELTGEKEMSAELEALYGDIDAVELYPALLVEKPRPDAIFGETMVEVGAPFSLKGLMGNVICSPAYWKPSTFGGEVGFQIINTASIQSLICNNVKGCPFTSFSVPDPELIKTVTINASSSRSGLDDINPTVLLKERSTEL
Description: Inhibition of COX-2 (unknown origin)
In the next data set the test system is G-361. The data set is described as follows: Antiproliferative activity against human G-361 cells. It counts as functional, cell-based. The note with it: read-out: IC50.
In a further data set the test system is SNU-423. Put plainly: Antiproliferative activity against human SNU-423 cells. It counts as functional, cell-based.
The next data set relates to T-24. Put plainly: Antiproliferative activity against human T24 cells. It counts as functional, cell-based.
The test system of a further data set is MDA-MB-453. The data set is described as follows: Antiproliferative activity against human MDA-MB-453 cells. It counts as functional, cell-based.
A further data set has as its system RT-4. The data set is described as follows: Antiproliferative activity against human RT-4 cells. It counts as functional, cell-based.
The next data set deals with Tubulin. The data set is described as follows: Inhibition of tubulin polymerization (unknown origin). It counts as protein-complex assay, Homo sapiens.
The next data set concerns RT-112. Put plainly: Antiproliferative activity against human RT-112 cells. It counts as functional, cell-based.
For another data set, the system named is UMUC3. The data set is described as follows: Antiproliferative activity against human UMUC3 cells. It counts as functional, cell-based.
In another data set the test system is BEL-7404 tumor cell line. Put plainly: Antiproliferative activity against human BEL-7404 cells. It counts as functional, cell-based.
The subject of a further data set is MGC-803. Put plainly: Antiproliferative activity against human MGC-803 cells.
For the next data set, the system named is SK-OV-3. The data set is described as follows: Antiproliferative activity against human SK-OV-3 cells. It counts as functional, cell-based.
The subject of another data set is NCI-H460. The data set is described as follows: Antiproliferative activity against human NCI-H460 cells. It counts as functional, cell-based.
For the next data set, the system named is HCT-116. Put plainly: Cytotoxicity against human HCT-116 cells. It counts as functional, cell-based.
In the next data set the test system is HepG2. The data set is described as follows: Cytotoxicity against human HepG2 cells. It counts as functional, cell-based.
The next data set relates to Huh-7. The data set is described as follows: Cytotoxicity against human Huh-7 cells. It counts as functional, cell-based.
The next data set deals with SMMC-7721. The data set is described as follows: Cytotoxicity against human SMMC-7721 cells. It counts as functional, cell-based.
Data set [4] in a line: Cytotoxicity against human L02 cells. It counts as toxicity, cell-based.
Data set [5] can be described thus: Cytotoxicity against human MRC5 cells. It counts as toxicity, cell-based.
A further data set concerns DU-145. Put plainly: Antiproliferative activity against human DU-145 cells. It counts as functional, cell-based.
Another data set concerns CWR22R. The data set is described as follows: Antiproliferative activity against human 22Rv1 cells. It counts as functional, cell-based.
The test system of data set [6] is PC-3. Put plainly: Antitumor activity against human PC-3 cells xenografted in nude mouse assessed as cell growth inhibition at 50 mg/kg/day, ig administered for 21 days. It counts as functional. Also on record: scale not given: the % may be the effect or the level left. The note with it: time 21 day.
Another data set has as its system LNCaP C4-2B. Put plainly: Antiproliferative activity against human LNCaP C4-2B cells. It counts as functional, cell-based.
For data set [7], the system named is PC-3. Put plainly: Antitumor activity against human PC-3 cells xenografted in nude mouse assessed as cell growth inhibition at 100 mg/kg/day, ig administered for 21 days. It counts as functional. Also on record: scale not given: the % may be the effect or the level left. The note with it: time 21 day.

In the case of `COc1ccc(C(=O)/C=C/c2cc(N3CCOCC3)c3cc([N+](=O)[O-])ccc3n2)cc1`, in the data set with HeLa, the Activity stood at 69.3%. In [1], the Kd came out at 4600 nM.
As for `O=C(Nc1ccc(NC(=O)c2ccc(Nc3ccnc4ccccc34)cc2)cc1)OCc1ccccc1`, the IC50 in the data set with MDA-MB-231, in the data set on KG-1, in the data set with PC-3 [2], with Raji and in the data set on U-937 was 300 nM throughout.
Regarding `COc1ccc2ccc(F)c(CC(=O)N/N=C/c3cccc(C(F)(F)F)c3)c2n1`, the IC50 in the data set with MCF7 was found to be 2070 nM; in data set [3], 130 nM; in the data set with G-361 it was 2070 nM.
For `COc1cc(N(CCCSC(=S)N2CCN(C(C)=O)CC2)S(=O)(=O)c2cccc3cccnc23)cc(OC)c1OC`, the IC50 with SNU-423 was 700 nM; in the data set on T-24 it was 2600 nM; in the data set with MDA-MB-453, 700 nM; with RT-4, 1900 nM; at Tubulin, 2900 nM; in the data set with RT-112, 700 nM. Also, the IC50 in the data set with UMUC3 stood at 900 nM.
Regarding `O=c1[nH]cc(F)c(=O)[nH]1` [FLUOROURACIL], the IC50 in the data set on BEL-7404 tumor cell line amounted to 26300 nM; in the data set on SNU-423 it was 7400 nM; in the data set with MGC-803 it was 10400 nM; with SK-OV-3, 26300 nM; in the data set with MDA-MB-453, 7400 nM; in the data set with NCI-H460, 26300 nM. Moreover, the IC50 is 10400 nM with PC-3 [2]; 7400 nM in the data set on RT-112; 5.3 µg/mL (≈ 40.7 µM) with HCT-116; 5.3 µg/mL with HepG2 (Homo sapiens, HepG2); 26300 nM in the data set with HepG2 (hepg2).
For the compound `COc1ccc(/C=N/NC(=O)c2ccc(Nc3ccnc4ccccc34)cc2)cc1OC`, the IC50 in the data set on Huh-7 is 6300 nM; with SMMC-7721, 6300 nM; in data set [4], 16100 nM; in data set [5], 16100 nM; in the data set on HepG2 (Homo sapiens, HepG2), 126000 nM.
As to `COc1cc(N(CCSC(=S)N2CCN(CCO)CC2)S(=O)(=O)c2cccc3cccnc23)cc(OC)c1OC`, the IC50 in the data set with DU-145 is 670 nM; in the data set with CWR22R it was 670 nM; in the data set with PC-3 [2], 430 nM; against Tubulin, 4020 nM; in the data set with LNCaP C4-2B, 670 nM. In addition, the Activity came to 35.6% in the data set on PC-3 [6] and 61.4% with PC-3 [7].

(Values after ChEMBL document CHEMBL5230155, “Recent contributions of quinolines to antimalarial and anticancer drug discovery research” (Eur J Med Chem, 2021).)
